Measurements as given in a melting point compilation (Tetko et al.).

Work on `Clc1ccc(OCCBr)c(Br)c1` yielded a melting point of 30 to 32 °C.
`O=S(=O)(Cl)c1cc(Cl)c(Br)s1` showed a melting point of 61 to 63 °C.
With `CCOc1ccc(S(=O)(=O)N2CCCCC2)cc1N` the melting point was 134 to 136 °C.
Compound `O=C(O)C=NNc1ccc(F)cc1` has a melting point of 87 to 89 °C.
`CC(=O)c1ccc(S(=O)(=O)C(F)F)cc1` gave a melting point of 92 to 94 °C.
With `CSC(=NS(C)(=O)=O)SC` the melting point was 88 to 90 °C.
Work on `O=C(O)CCC(=O)NCC(=O)c1ccccc1` yielded a melting point of 143 to 145 °C.
In the case of `O=S(=O)(Cl)c1ccc(OCC(F)F)cc1`, the melting point is reported as 42 to 44 °C.
In the case of `COc1ccc(C(=O)CO)cc1Cl`, the melting point is reported as 136 to 138 °C.
Work on `Cc1cc(N)n(-c2ccc(F)cc2)n1` yielded a melting point of 109 to 111 °C.
`Nc1ccc2cccc(Br)c2n1` gave a melting point of 152 to 154 °C.
Work on `CC(=O)Nc1ccc(Br)cc1N` yielded a melting point of 155 to 157 °C.
In the case of `CCNc1ccc(C(=O)OCC)cc1[N+](=O)[O-]`, the melting point is reported as 91 to 95 °C.
In the case of `COc1cc(C(=O)O)cc(Br)c1O`, the melting point is reported as 197 to 199 °C.
`CCOC(=O)c1nc(Cl)c2ccccc2n1` gave a melting point of 99 to 101 °C.
In the case of `CC(C)NC(=O)c1cccc(CN)c1`, the melting point is reported as 105 to 107 °C.
Compound `COc1ccc(C=O)cc1OCc1ccc([N+](=O)[O-])cc1` has a melting point of 109 to 111 °C.
Work on `Cc1ccc(N)cc1S(=O)(=O)NC1CC1` yielded a melting point of 131 to 133 °C.
In the case of `CC(C)(C)OC(=O)NC1CC(O)C1` (stereo unspecified), the melting point is reported as 108 to 110 °C.
For `O=c1cc(CCl)nc2ccccn12`, the melting point was 173 to 175 °C.
With `O=c1cc(CCl)nc2scnn12` the melting point was 183 to 187 °C.
In the case of `CCNC(=O)c1ccccc1N`, the melting point is reported as 93 to 95 °C.
In the case of `Nc1cccc(-c2ccc3ccccc3c2)n1`, the melting point is reported as 124 to 126 °C.
For `Cc1ccc(-c2ocnc2C(=O)O)cc1`, the melting point was 193 to 195 °C.
`CCOc1ccc(N)cc1Cl` gave a melting point of 63 to 65 °C.
`CC(=O)NCCc1ccc(S(=O)(=O)Cl)s1` showed a melting point of 87 to 89 °C.
`Nc1ccccc1NS(=O)(=O)c1ccc(F)cc1` gave a melting point of 122 to 124 °C.
Work on `O=C(O)CCCOc1ccc(S(=O)(=O)Cl)cc1F` yielded a melting point of 112 to 114 °C.
Compound `Cc1nc(-c2ccccc2)sc1CCl` has a melting point of 84 to 86 °C.
Work on `COc1ccc(CNC(=O)C(C#N)=CN(C)C)cc1` yielded a melting point of 128 to 130 °C.
For `Nc1cc(C(=O)O)ccc1Oc1ccccc1`, the melting point was 146 to 148 °C.
For `Cc1ccc(S(=O)(=O)OC(c2nc(C)cs2)C(F)(F)F)cc1` (stereo unspecified), the melting point was 105 to 107 °C.
Compound `Nc1ccc(Oc2ccc(C(F)(F)F)cc2)nc1` has a melting point of 116 to 118 °C.
With `NC(=O)c1cccc(S(=O)(=O)Cl)c1` the melting point was 78 to 80 °C.
Work on `COc1cc2ccncc2cc1O` yielded a melting point of 159 to 161 °C.
Compound `Cc1nn(C)c(Br)c1C#N` has a melting point of 109 to 111 °C.
In the case of `O=C(NC1CCCCNC1=O)OCC(F)(F)F` (stereo unspecified), the melting point is reported as 199 to 201 °C.
`Cc1ccc(C(=O)NCC(=O)O)cc1C` showed a melting point of 160 to 162 °C.
For `COC(=O)C(NC(c1ccccc1)(c1ccccc1)c1ccccc1)C(C)O` (stereo unspecified), the melting point was 115 to 117 °C.
`COC(=O)c1cnc2c(c1)c(C)nn2C` showed a melting point of 129 to 131 °C.
For `O=[N+]([O-])c1cc(Br)ccc1S`, the melting point was 123 to 125 °C.
For `Cc1cc(/C=C/C(=O)O)c(C)n1-c1nccs1`, the melting point was 160 to 162 °C.
Compound `CC1(C)C(O)CC1O` (stereo unspecified) has a melting point of 104 to 106 °C.
In the case of `COc1ccc(C2(C(=O)O)CCCC2)cc1OC`, the melting point is reported as 140 to 142 °C.
With `CCOc1ccc(C(C)=O)cc1CCl` the melting point was 80 to 82 °C.
For `COc1ccc(C(=O)NCC(=O)O)cc1`, the melting point was 165 to 167 °C.
For `COc1ccc(N2CC(C(=O)O)CC2=O)c(OC)c1` (stereo unspecified), the melting point was 183 to 185 °C.
In the case of `Nc1[nH]nc(-c2ccccc2)c1-c1ccccc1`, the melting point is reported as 141 to 143 °C.
Work on `N#Cc1ccc(C(F)(F)F)nc1Cl` yielded a melting point of 38 to 40 °C.
Compound `Nc1ccc(CC(=O)Nc2ccccc2F)cc1` has a melting point of 110 to 112 °C.
`CC(=O)c1ccc(-c2ccc(Cl)c(Cl)c2)cc1` gave a melting point of 135 to 137 °C.
With `COCC(=O)Nc1cccc(N)c1` the melting point was 82 to 84 °C.
In the case of `O=C1NC(=O)C(Cc2ccccc2)(c2ccccc2)N1` (stereo unspecified), the melting point is reported as 209 to 211 °C.
Compound `CNc1nc(C(=O)O)cs1` has a melting point of 204 to 206 °C.
Compound `O=C(O)c1ccc(OCCO)cc1` has a melting point of 177 to 179 °C.
Compound `CCn1c2ccccc2c2cc(/C=C/C(=O)O)ccc21` has a melting point of 243 to 245 °C.
